target: HSD17B13 (Homo sapiens (Human), UniProt Q7Z5P4); assay: HSD17B13 enzymatic inhibition assay (150 nM or 50 nM HSD17B13); assay type: biochemical; settings: 50 nM HSD17B13; read-out: Inhibition of 50 nM of HSD17B13 IC50
Sequence (Q7Z5P4 other isoform, or with tags, fused parts or gaps): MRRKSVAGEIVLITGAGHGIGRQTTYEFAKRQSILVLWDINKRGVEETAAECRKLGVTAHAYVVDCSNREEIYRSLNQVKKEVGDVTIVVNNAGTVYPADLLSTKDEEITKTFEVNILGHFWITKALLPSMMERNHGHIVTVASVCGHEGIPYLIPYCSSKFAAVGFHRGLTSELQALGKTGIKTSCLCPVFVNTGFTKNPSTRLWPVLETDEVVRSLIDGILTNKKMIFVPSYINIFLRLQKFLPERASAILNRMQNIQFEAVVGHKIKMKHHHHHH

Q: `Cc1ccc2c(c1)S(=O)(=O)c1cc(C)ccc1C2NC(=O)c1cc(Br)c(C(F)(F)F)[nH]c1=O` [Compound 473, 5-bromo-N-(3,6-dimethyl-10,10-dioxido-9H-thioxanthen-9-yl)-2-oxo-6-(trifluoromethyl)-1,2-dihydropyridine-3-carboxamide] was tested. Which IC50 did it give?
A: 30 nM

Q: Which IC50 does the source give for `Cc1ccc2c(c1)S(=O)(=O)c1cc(C)ccc1C2NC(=O)c1cc(C)c(C(F)(F)F)[nH]c1=O` [Compound 474, N-(3,6-dimethyl-10,10-dioxido-9H-thioxanthen-9-yl)-5-methyl-2-oxo-6-(trifluoromethyl)-1,2-dihydropyridine-3-carboxamide] here?
A: 30 nM

Q: `Cc1ccc2c(c1)S(=O)(=O)c1cc(C)ccc1C2NC(=O)c1ccc(C(F)(F)F)[nH]c1=O` [Compound 475, N-(3,6-dimethyl-10,10-dioxido-9H-thioxanthen-9-yl)-2-oxo-6-(trifluoromethyl)-1,2-dihydropyridine-3-carboxamide] was tested. Which IC50 did it give?
A: 10 nM

Q: For `Cc1ccc2c(c1)S(=O)(=O)c1cccc(C)c1C2NC(=O)c1ccc(C(F)(F)F)[nH]c1=O` (stereo not drawn) [Compound 476, N-(1,6-dimethyl-10,10-dioxido-9H-thioxanthen-9-yl)-2-oxo-6-(trifluoromethyl)-1,2-dihydropyridine-3-carboxamide], which IC50 is on record?
A: > 10000 nM

Q: With `O=C(NC1CCOc2cccnc21)c1ccc(C(F)(F)F)[nH]c1=O` (stereo not drawn) [Compound 477, N-(3,4-dihydro-2H-pyrano[3,2-b]pyridin-4-yl)-2-oxo-6-(trifluoromethyl)-1,2-dihydropyridine-3-carboxamide] as the compound, how does the IC50 read?
A: > 10000 nM

Q: Which IC50 does the source give for `O=C(NC(c1ccccc1)c1cccc(CC(F)(F)F)c1)c1ccc(C(F)(F)F)[nH]c1=O` (stereo not drawn) [Compound 478, 2-oxo-N-(phenyl(3-(2,2,2-trifluoroethyl)phenyl)methyl)-6-(trifluoromethyl)-1,2-dihydropyridine-3-carboxamide] here?
A: 1410 nM

Q: With `O=C(NC1c2ccccc2Oc2ccc(CC(F)(F)F)cc21)c1ccc(C(F)(F)F)[nH]c1=O` (stereo not drawn) [Compound 479, 2-oxo-N-(2-(2,2,2-trifluoroethyl)-9H-xanthen-9-yl)-6-(trifluoromethyl)-1,2-dihydropyridine-3-carboxamide] as the compound, how does the IC50 read?
A: 260 nM

Q: `O=C(NC1c2ccccc2Sc2ccc(CC(F)(F)F)cc21)c1ccc(C(F)(F)F)[nH]c1=O` (stereo not drawn) [Compound 480, 2-oxo-N-(2-(2,2,2-trifluoroethyl)-9H-thioxanthen-9-yl)-6-(trifluoromethyl)-1,2-dihydropyridine-3-carboxamide] was tested. Which IC50 did it give?
A: 400 nM

Q: Which IC50 does the source give for `O=C(NC1c2ccccc2Oc2ccc(C3CNC3)cc21)c1ccc(C(F)(F)F)[nH]c1=O` (stereo not drawn) [Compound 481, N-(2-(azetidin-3-yl)-9H-xanthen-9-yl)-2-oxo-6-(trifluoromethyl)-1,2-dihydropyridine-3-carboxamide] here?
A: 1420 nM

Q: Which IC50 does the source give for `CN1CC(c2ccc3c(c2)C(NC(=O)c2ccc(C(F)(F)F)[nH]c2=O)c2ccccc2O3)C1` (stereo not drawn) [Compound 482, N-(2-(1-methylazetidin-3-yl)-9H-xanthen-9-yl)-2-oxo-6-(trifluoromethyl)-1,2-dihydropyridine-3-carboxamide] here?
A: 2390 nM

Q: With `O=C(NC1c2ccccc2Oc2cc(C3CNC3)ccc21)c1ccc(C(F)(F)F)[nH]c1=O` (stereo not drawn) [Compound 483, N-(3-(azetidin-3-yl)-9H-xanthen-9-yl)-2-oxo-6-(trifluoromethyl)-1,2-dihydropyridine-3-carboxamide] as the compound, how does the IC50 read?
A: 1110 nM

Q: With `CN1CC(c2ccc3c(c2)Oc2ccccc2C3NC(=O)c2ccc(C(F)(F)F)[nH]c2=O)C1` (stereo not drawn) [Compound 484, N-(3-(1-methylazetidin-3-yl)-9H-xanthen-9-yl)-2-oxo-6-(trifluoromethyl)-1,2-dihydropyridine-3-carboxamide] as the compound, how does the IC50 read?
A: 4980 nM

Q: How did the IC50 turn out when `Cc1ccc2c(c1)Oc1cc(C)ccc1C2NC(=O)c1ccc(C(C)C)[nH]c1=O` [Compound 485, N-(3,6-dimethyl-9H-xanthen-9-yl)-6-isopropyl-2-oxo-1,2-dihydropyridine-3-carboxamide] was run?
A: > 10000 nM

Q: Which IC50 does the source give for `Cc1ccc2c(c1)Oc1cc(C)ccc1C2NC(=O)c1ccc(C(C)(C)C)[nH]c1=O` [Compound 486, 6-(tert-butyl)-N-(3,6-dimethyl-9H-xanthen-9-yl)-2-oxo-1,2-dihydropyridine-3-carboxamide] here?
A: > 10000 nM

Q: Which IC50 does the source give for `Cc1ccc2c(c1)Oc1cc(C)ccc1C2NC(=O)c1ccc(C(C)(C)C)nc1Cl` [Compound 487, 6-(tert-butyl)-2-chloro-N-(3,6-dimethyl-9H-xanthen-9-yl)nicotinamide] here?
A: > 10000 nM

Q: How did the IC50 turn out when `O=C(NC1c2ccccc2Oc2cc(C3COC3)ccc21)c1ccc(C(F)(F)F)[nH]c1=O` (stereo not drawn) [Compound 488, N-(3-(oxetan-3-yl)-9H-xanthen-9-yl)-2-oxo-6-(trifluoromethyl)-1,2-dihydropyridine-3-carboxamide] was run?
A: 110 nM

Q: `O=C(NC1c2ccccc2Oc2ccc(C3COC3)cc21)c1ccc(C(F)(F)F)[nH]c1=O` (stereo not drawn) [Compound 489, N-(2-(oxetan-3-yl)-9H-xanthen-9-yl)-2-oxo-6-(trifluoromethyl)-1,2-dihydropyridine-3-carboxamide] was tested. Which IC50 did it give?
A: 230 nM

Q: Which IC50 does the source give for `Cc1ccc(C(C(=O)Nc2ccc(C(F)(F)F)[nH]c2=O)c2ccc(C)cc2)cc1` [Compound 492, N-(2-oxo-6-(trifluoromethyl)-1,2-dihydropyridin-3-yl)-2,2-di-p-tolylacetamide] here?
A: > 10000 nM

Q: For `Cc1ccc2c(c1)S(=O)(=O)c1cc(C)ccc1C2NC(=O)c1cc(-c2ccncc2)c(C(F)(F)F)[nH]c1=O` [Compound 493, N-(3,6-dimethyl-10,10-dioxido-9H-thioxanthen-9-yl)-6-oxo-2-(trifluoromethyl)-1,6-dihydro-[3,4′-bipyridine]-5-carboxamide], which IC50 is on record?
A: 90 nM

Q: How did the IC50 turn out when `Cc1ccc2c(c1)Oc1cc(C)ccc1C2NC(=O)c1cc(-c2cc[nH]c(=O)c2)c(C(F)(F)F)[nH]c1=O` [Compound 494, N-(3,6-dimethyl-9H-xanthen-9-yl)-2′,6-dioxo-2-(trifluoromethyl)-1,1′,2′,6-tetrahydro-[3,4′-bipyridine]-5-carboxamide] was run?
A: 20 nM

Q: How did the IC50 turn out when `Cc1ccc2c(c1)Oc1cc(C)ccc1C2NC(=O)c1cc(-c2cccnc2)c(C(F)(F)F)[nH]c1=O` [Compound 496, N-(3,6-dimethyl-9H-xanthen-9-yl)-6-oxo-2-(trifluoromethyl)-1,6-dihydro-[3,3′-bipyridine]-5-carboxamide] was run?
A: 20 nM

Q: How did the IC50 turn out when `Cc1ccc2c(c1)Oc1cc(C)ccc1C2NC(=O)c1cc(-c2ccc(=O)[nH]c2)c(C(F)(F)F)[nH]c1=O` [Compound 497, N-(3,6-dimethyl-9H-xanthen-9-yl)-6,6′-dioxo-2-(trifluoromethyl)-1,1′,6,6′-tetrahydro-[3,3′-bipyridine]-5-carboxamide] was run?
A: 30 nM

Q: `COc1cc(-c2cc(C(=O)NC3c4ccc(C)cc4Oc4cc(C)ccc43)c(=O)[nH]c2C(F)(F)F)ccn1` [Compound 498, N-(3,6-dimethyl-9H-xanthen-9-yl)-2′-methoxy-6-oxo-2-(trifluoromethyl)-1,6-dihydro-[3,4′-bipyridine]-5-carboxamide] was tested. Which IC50 did it give?
A: 20 nM

Q: For `Cc1ccc2c(c1)Oc1cccc(C)c1C2NC(=O)c1cc(Cc2ccccc2)c(C(F)(F)F)[nH]c1=O` (stereo not drawn) [Compound 502, 5-benzyl-N-(1,6-dimethyl-9H-xanthen-9-yl)-2-oxo-6-(trifluoromethyl)-1,2-dihydropyridine-3-carboxamide], which IC50 is on record?
A: 260 nM

Q: `Cc1ccc2c(c1)Oc1cccc(C)c1C2NC(=O)c1cc(-c2ccncc2)c(C(F)(F)F)[nH]c1=O` (stereo not drawn) [Compound 503, N-(1,6-dimethyl-9H-xanthen-9-yl)-6-oxo-2-(trifluoromethyl)-1,6-dihydro-[3,4′-bipyridine]-5-carboxamide] was tested. Which IC50 did it give?
A: 230 nM

Q: Which IC50 does the source give for `Cc1ccc2c(c1)Oc1cc(C)ccc1C2NC(=O)c1cc(C2=CCCCC2)c(C(F)(F)F)[nH]c1=O` [Compound 505, 5-(cyclohex-1-en-1-yl)-N-(3,6-dimethyl-9H-xanthen-9-yl)-2-oxo-6-(trifluoromethyl)-1,2-dihydropyridine-3-carboxamide] here?
A: 80 nM

Q: How did the IC50 turn out when `Cc1ccc2c(c1)S(=O)(=O)c1cc(C)ccc1C2NC(=O)c1cc(-c2ncccn2)c(C(F)(F)F)[nH]c1=O` [Compound 506, N-(3,6-dimethyl-10,10-dioxido-9H-thioxanthen-9-yl)-2-oxo-5-(pyrimidin-2-yl)-6-(trifluoromethyl)-1,2-dihydropyridine-3-carboxamide] was run?
A: 90 nM

Q: Which IC50 does the source give for `Cc1ccc2c(c1)Sc1cc(C)ccc1C2NC(=O)c1cc(-c2ncccn2)c(C(F)(F)F)[nH]c1=O` [Compound 507, N-(3,6-dimethyl-9H-thioxanthen-9-yl)-2-oxo-5-(pyrimidin-2-yl)-6-(trifluoromethyl)-1,2-dihydropyridine-3-carboxamide] here?
A: 40 nM

Q: `CCN1CCN(c2cc(C(=O)NC3c4ccc(C)cc4Oc4cc(C)ccc43)c(=O)[nH]c2C(F)(F)F)CC1` [Compound 512, N-(3,6-dimethyl-9H-xanthen-9-yl)-5-(4-ethylpiperazin-1-yl)-2-oxo-6-(trifluoromethyl)-1,2-dihydropyridine-3-carboxamide] was tested. Which IC50 did it give?
A: 90 nM

Q: `CC(C)(C)OC(=O)Nc1ccc(CSc2ncc(C(=O)NC3c4ccc(Cl)cc4Oc4cc(Cl)ccc43)c(=O)[nH]2)cc1` [Compound 513, tert-butyl (4-(((5-((3,6-dichloro-9H-xanthen-9-yl)carbamoyl)-6-oxo-1,6-dihydropyrimidin-2-yl)thio)methyl)phenyl)carbamate] was tested. Which IC50 did it give?
A: 920 nM

Q: Which IC50 does the source give for `Cc1ccc2c(c1)Oc1cc(C)ccc1C2NC(=O)c1cc(Oc2ccccc2)c(C(F)(F)F)[nH]c1=O` [Compound 514, N-(3,6-dimethyl-9H-xanthen-9-yl)-2-oxo-5-phenoxy-6-(trifluoromethyl)-1,2-dihydropyridine-3-carboxamide] here?
A: 20 nM

Q: How did the IC50 turn out when `Cc1ccc2c(c1)Sc1cc(C)ccc1C2NC(=O)c1cc(C)c(C(F)(F)F)[nH]c1=O` [Compound 515, N-(3,6-dimethyl-9H-thioxanthen-9-yl)-5-methyl-2-oxo-6-(trifluoromethyl)-1,2-dihydropyridine-3-carboxamide] was run?
A: 30 nM

Q: Which IC50 does the source give for `Cc1ccc2c(c1)Oc1cc(C)ccc1C2NC(=O)c1cc(C2=CCNCC2)c(C(F)(F)F)[nH]c1=O` [Compound 516, N-(3,6-dimethyl-9H-xanthen-9-yl)-6-oxo-2-(trifluoromethyl)-1,1′,2′,3′,6,6′-hexahydro-[3,4′-bipyridine]-5-carboxamide] here?
A: 200 nM

Reference: patent publication US11957687B2 (REGENERON PHARMACEUTICALS, INC., priority 2019, dated 2024)
